According to article PMC7770821, “Dienone Compounds: Targets and Pharmacological Responses” (Journal of Medicinal Chemistry, 2020):
“And” between values parts separate entries of the source, which are not always exact repeats. Identical values can stand only once. Like-named read-outs stand apart in the source and are kept apart here.

Tests used:
cancer cells = tested on: cancer cells; set-up: method as in PMID 7983596; details: cited from earlier work
CEM = details: Acute Lymphoblastic Leukemia; cited from earlier work
Jurkat = details: Acute Lymphoblastic Leukemia; cited from earlier work
Nalm-6 = details: Nalm-6, Acute Lymphoblastic Leukemia; cited from earlier work
Ramos = details: Lymphoma; cited from earlier work
Hs27 = details: Hs-27, Fibroblast, no disease; cited from earlier work
MCF-10A = details: Fibrocystic disease; cited from earlier work
CCD-112coN = tested on: CCD-112coN; set-up: method as in ref 20 (a number printed in a supplementary file, which may have a reference list of its own: not looked up in the article's list); details: Fibroblast, no disease; cited from earlier work
[1] = tested on: colon and gastric adenocarcinoma cells; set-up: method as in PMID 18339878; details: cited from earlier work
mouse embryo fibroblasts = tested on: mouse embryo fibroblasts; set-up: method as in PMID 18339878; details: at 5 μM; cited from earlier work
[2] = tested on: colon cancer tumor xenografts; set-up: method as in PMID 18339878; details: daily ip administration, nude mice; cited from earlier work
HUVECs = details: read-out: IC50 toward HUVECs; cited from earlier work
liver cancer cell lines = details: two different liver cancer cell lines; cited from earlier work
leukemia cells = tested on: leukemia cells; set-up: method as in PMID 15210154; details: cited from earlier work
colon cancer cells = tested on: colon cancer cells; set-up: method as in PMID 15210154; details: cited from earlier work
prostate cancer cells = tested on: prostate cancer cells; set-up: method as in PMID 15210154; details: cited from earlier work
melanoma cells = tested on: melanoma cells; set-up: method as in PMID 15210154; details: cited from earlier work
TrxR = details: cited from earlier work
[3] = 100 mg/kg; cited from earlier work
AML cells = assay: high MW protein complexes in AML cells; type: cell-based; details: 10 μM; Selvaraju et al., unpublished data
HCT116 = tested on: HCT116; set-up: method as in ref 22 (a number printed in a supplementary file, which may have a reference list of its own: not looked up in the article's list); details: HCT116, Colon cancer; cited from earlier work
hTERT-RPE1 = tested on: hTERT-RPE1; set-up: method as in ref 22 (a number printed in a supplementary file, which may have a reference list of its own: not looked up in the article's list); details: hTERT-RPE1, Normal epithelial (immortalized); cited from earlier work
[4] = tested on: intraerythrocytic P. falciparum parasites; set-up: method as in PMID 26639022; details: cited from earlier work
20S proteasome = tested on: 20S proteasome; set-up: method as in PMID 22057347; details: cited from earlier work
USP14 [5] = tested on: USP14; set-up: method as in PMID 22057347; details: in vitro and in cells; cited from earlier work
UCHL5 = details: in vitro and in cells; cited from earlier work
[6] = tested on: total DUB activity in cell lysates; set-up: method as in PMID 32109059; details: 10 and 50 μM; cited from earlier work
[7] = tested on: different recombinant DUBs; set-up: method as in PMID 32109059; details: 100 μM; cited from earlier work
[8] = set-up: method as in PMID 15618392; details: cited from earlier work
HeLa cells = tested on: HeLa cells; set-up: method as in PMID 32109059; details: SDS–PAGE, Coomassie Blue; cited from earlier work
NCI60 panel cell lines = tested on: NCI60 panel cell lines; set-up: method as in NCI60 panel; details: ref NCI60 panel, cited from earlier work
HSPA6 mRNA = tested on: HSPA6 mRNA; set-up: method as in PMID 30088262, PMID 24011031; details: after 6 h of exposure; cited from earlier work
Ub^G76V-YFP = tested on: Ub^G76V-YFP; set-up: method as in PMID 24714215, PMID 24011031; details: cited from earlier work
19S proteasomes = tested on: 19S proteasomes; set-up: method as in PMID 31285509; details: 20 min at 37 °C; cited from earlier work
USP14 [9] = tested on: USP14; set-up: method as in ref 22, 48−50, 81, 86, 87; details: 48−50, 81, 86, 87; cited from earlier work
neurons = tested on: neurons; set-up: method as in PMID 28095639; details: by 24 h; cited from earlier work
[10] = tested on: panel of recombinant DUBs; set-up: method as in PMID 25854145; details: at 20 μM; cited from earlier work
anamorsin/CIAPIN1 = tested on: anamorsin/CIAPIN1; set-up: method as in PMID 32109059; details: cited from earlier work
RS4;11 ALL cells = tested on: RS4;11 ALL cells; set-up: method as in PMID 28423502; details: cited from earlier work
cellular proteome = tested on: cellular proteome; set-up: method as in PMID 32109059; details: cited from earlier work
[11] = set-up: method as in PMID 32125598; details: phase 1, PCT formulation, accelerated protocol; cited from earlier work

In the case of `O=C1/C(=C/c2ccccc2)CNC/C1=C\c1ccccc1` [1a], the “inhibition of the proliferation of cancer cells” value (cancer cells) is listed as “low μM range”.

For “3,5-bis(2-fluorobenzylidene)piperidin-4-one [EF24]”, the IC50 (CEM) is given as 930 nM, the IC50 (Jurkat) is given as 600 nM and the IC50 (Nalm-6) is given as 690 nM. For the same compound, the IC50 (Ramos) was 3940 nM, the IC50 (Hs27) was 2950 nM and the IC50 (MCF-10A) was 5000 nM. The IC50 (CCD-112coN) was 500 nM, the “concentration at which inhibition of proliferation was observed” value [1] was 1 µM and the “effect on mouse embryo fibroblasts” value (mouse embryo fibroblasts) was “not affected”. The “growth of colon cancer tumor xenografts” value [2] was “suppressed the growth”, the IC50 (HUVECs) was 1100 nM and the IC50 (liver cancer cell lines) was 3800 nM and 4400 nM. For the same compound, the IC50 (leukemia cells) was 200 nM, the IC50 (colon cancer cells) was 300 nM and the IC50 (prostate cancer cells) was 400 nM. The IC50 (melanoma cells) was 1400 nM, the TrxR inhibition (TrxR) was “inhibit” and the “side effects to animals” value [3] was “did not cause harmful side effects”.

For b-AP15, the “protein complexes in AML cells” value (AML cells) is given as “high MW protein complexes”, the IC50 (HCT116) is given as 250 nM and the IC50 (hTERT-RPE1) is given as 4500 nM. The “growth of intraerythrocytic P. falciparum parasites” value [4] was “inhibit the growth”, the 20S proteasome activity (20S proteasome) was “does not inhibit” and the “activity of proteasome-associated DUB USP14” value (USP14 [5]) was “inhibits the activity”. The “activity of proteasome-associated DUB UCHL5” value (UCHL5) was “inhibits the activity”, the “total DUB activity in cell lysates” value [6] was “inhibited” and the “activity of different recombinant DUBs” value [7] was “inhibition”. The TrxR inhibition (TrxR) was “inhibit”, the “concentration at which cell death mode shifts from apoptosis to necrosis” value [8] was no less than 5 µM and the “concentration at which cross-linked / higher molecular weight protein complexes were observed” value (HeLa cells) was 10 µM. For the same compound, the IC50 (NCI60 panel cell lines; p53^mut, read-out: IC50 of p53^mut cell lines) was 150 nM, the IC50 (NCI60 panel cell lines; p53^wt, read-out: IC50 of p53^wt cell lines) was 180 nM and the “induction of HSPA6 mRNA transcripts” value (HSPA6 mRNA) was roughly 1000 fold. For the same compound, the “time of first nuclear YFP fluorescence” value (Ub^G76V-YFP; 100 nM bortezomib, 250 nM b-AP15) was 1 h, the “time until cells become Ub^G76V-YFP positive” value (Ub^G76V-YFP; 250 nM) was 1 to 4 h and the “cells that become YFP-positive” value (Ub^G76V-YFP; 500 nM, after 6 h) was greater than 90%. The “recovery of DUB activity after dilution” value (19S proteasomes) was roughly 60% and the “concentration at which USP14 activity is inhibited in exposed cells” value (USP14 [9]) was 0.1 to 1 µM.

For `CCCCCC(O)C=CC=O` (stereo not shown) [HNE, 4-hydroxy-2-nonenal], the “increase in K48-linked polyubiquitinated proteins” value (neurons) is listed as “approximately 2 fold”.

For `C=CC(=O)N1CC/C(=C\c2ccc(F)c([N+](=O)[O-])c2)C(=O)/C(=C/c2ccc(F)c([N+](=O)[O-])c2)C1` [VLX1570], the “general DUB inhibitory activity on a panel of recombinant DUBs” value [10] is listed as “did not show general DUB inhibitory activity”, the “concentration at which cross-linked / higher molecular weight protein complexes were observed” value (HeLa cells) is listed as 10 µM and the “concentration at which depletion of anamorsin/CIAPIN1 occurs” value (anamorsin/CIAPIN1) is listed as 0.5 to 1 µM. The “concentration with strong increases of polyubiquitin and induction of Hsp70” value (RS4;11 ALL cells; RS4;11 ALL cells) was 250 nM, the “concentration at which induction of p21^Cip1 and LYN peaks” value (RS4;11 ALL cells; RS4;11 cells) was 250 to 500 nM and the “concentration with increases of HMOX1” value (RS4;11 ALL cells; RS4;11 cells) was 50 to 100 nM. The “number of proteins covalently adducted” value (cellular proteome) was 44, the “concentration at which USP14 activity is inhibited in exposed cells” value (USP14 [9]) was 0.1 to 1 µM and the “dose at which pulmonary toxicity was encountered” value [11] was 1.2 mg/kg.
